Source: US9890138B2, “Diaminopyrimidine derivatives and processes for the preparation thereof” (YUHAN CORPORATION, priority 2011, dated 2018)

The compounds below were run against T1, human 5-HT4(a) (Homo sapiens, UniProt Q13639) (assay: Evaluation of agonistic activity in CHO-K1 cells expressing human 5-HT4(a) (GeneBlAzer HTR4-CRE-bla CHO-K1, beta-lactamase reporter)). Settings: CHO-K1 cells stably expressing human 5-HT4(a).
T1 construct: host or cells: GeneBlAzer HTR4-CRE-bla CHO-K1 cells
Assay type: cell-based
In short: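 GeneBlAzer HTR4-CRE-bla CHO-K1 cells, 10^4/well overnight, exposed 5 h to compounds at 8 concentrations in medium with 1% DMSO in the added solution. β-lactamase substrate 2 h in dark; 410 nm excitation, 465/535 nm emission ratio; EC50 by non-linear regression.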

T1 sequence (Q13639 1-387 isoform Q13639-2): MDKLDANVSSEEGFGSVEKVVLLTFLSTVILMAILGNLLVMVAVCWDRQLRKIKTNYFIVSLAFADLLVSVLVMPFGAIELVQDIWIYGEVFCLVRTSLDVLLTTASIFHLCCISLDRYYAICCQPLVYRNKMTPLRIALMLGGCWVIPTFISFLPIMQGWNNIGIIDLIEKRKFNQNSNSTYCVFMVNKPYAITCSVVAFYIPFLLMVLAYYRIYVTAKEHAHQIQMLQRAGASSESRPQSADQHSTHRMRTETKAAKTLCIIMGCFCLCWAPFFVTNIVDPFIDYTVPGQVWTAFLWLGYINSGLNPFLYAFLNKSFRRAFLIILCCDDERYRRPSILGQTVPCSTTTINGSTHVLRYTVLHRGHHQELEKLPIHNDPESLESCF

EC50 [pM] | Compound
402 | CCCNC[C@@H]1CCCN1c1cc(CCC)nc(Nc2cccc(C#N)c2)n1 [Example 406]
254 | CCCc1cc(N2CCC[C@H]2CNCCO)nc(Nc2cccc(C#N)c2)n1 [Example 407]
3.4 | CCCN[C@H]1CCN(c2cc(CCC)nc(Nc3ccc(C)c(C#N)c3)n2)C1 [Example 414]
15 | CCCc1cc(N2CC[C@H](NCCCSC)C2)nc(Nc2ccc(C)c(C#N)c2)n1 [Example 415]
7.4 | CCCc1cc(N2CC[C@H](NCc3ccc[nH]3)C2)nc(Nc2ccc(C)c(C#N)c2)n1 [Example 416]
5.1 | CCCc1cc(N2CC[C@H](NCc3ccc(O)cc3)C2)nc(Nc2ccc(C)c(C#N)c2)n1 [Example 417]
2.2 | CCCc1cc(N2CC[C@H](NC(C)C)C2)nc(Nc2ccc(C)c(C#N)c2)n1 [Example 418, (S)-5-{4-[3-(isopropylamino)pyrrolidin-1-yl]-6-propylpyrimidin-2-ylamino]-2-methylbenzonitrile]
3.2 | CCCc1cc(N2CC[C@H](NC3CCC3)C2)nc(Nc2ccc(C)c(C#N)c2)n1 [Example 419]
2.9 | CCCc1cc(N2CC[C@H](NC3CCCC3)C2)nc(Nc2ccc(C)c(C#N)c2)n1 [Example 420]
7.9 | CCCc1cc(N2CC[C@H](NC3CCCCC3)C2)nc(Nc2ccc(C)c(C#N)c2)n1 [Example 421]
11 | CCCCCN[C@H]1CCN(c2cc(CCC)nc(Nc3ccc(C)c(C#N)c3)n2)C1 [Example 422]
8.4 | CCCc1cc(N2CC[C@H](NCC(C)(C)C)C2)nc(Nc2ccc(C)c(C#N)c2)n1 [Example 423]
20 | CCCc1cc(N2CC[C@H](NCc3cc(C)c(C)o3)C2)nc(Nc2ccc(C)c(C#N)c2)n1 [Example 424]
56 | CCCc1cc(N2CC[C@H](NC(=O)CC)C2)nc(Nc2ccc(C)c(C#N)c2)n1 [Example 425]
79 | CCCc1cc(N2CC[C@H](NC(=O)Cc3ccccc3)C2)nc(Nc2ccc(C)c(C#N)c2)n1 [Example 426]
24 | CCCc1cc(N2CC[C@H](NC(=O)CN3CCCCC3)C2)nc(Nc2ccc(C)c(C#N)c2)n1 [Example 427]
66 | CCCc1cc(N2CC[C@H](NC(=O)Cc3cccnc3)C2)nc(Nc2ccc(C)c(C#N)c2)n1 [Example 428]
25 | CCCc1cc(N2CC[C@H](NC(=O)Cc3ccncc3)C2)nc(Nc2ccc(C)c(C#N)c2)n1 [Example 429]
27 | CCCc1cc(N2CC[C@H](NC(=O)Cc3cccs3)C2)nc(Nc2ccc(C)c(C#N)c2)n1 [Example 430]
29 | CCCc1cc(N2CC[C@H](NS(C)(=O)=O)C2)nc(Nc2ccc(C)c(C#N)c2)n1 [Example 431, (S)—N-{1-[2-(3-cyano-4-methylphenylamino)-6-propylpyrimidin-4-yl]pyrrolidin-3-yl}methanesulfonamide]
55 | CCCc1cc(N2CC[C@H](NC(=O)NCC)C2)nc(Nc2ccc(C)c(C#N)c2)n1 [Example 433]
111 | CCCc1cc(N2CC[C@H](CN(CC)CC)C2)nc(Nc2cccc(C#N)c2)n1 [Example 434]
10 | CCCCc1cc(N2CC[C@H](NC(C)=O)C2)nc(Nc2ccc(C)c([N+](=O)[O-])c2)n1 [Example 436]
20 | CCCCc1cc(N2CC[C@H](NC(C)=O)C2)nc(Nc2ccc(F)c([N+](=O)[O-])c2)n1 [Example 437]
15 | CCCCc1cc(N2CC[C@H](NC(C)=O)C2)nc(Nc2ccc(Cl)c([N+](=O)[O-])c2)n1 [Example 438]

EC50 [pM] | Compound
7.5 | CCCCc1cc(N2CC[C@H](NC(C)=O)C2)nc(Nc2cc(N)cc(C#N)c2)n1 [Example 439]
17 | CCCCc1cc(N2CC[C@H](NC(C)=O)C2)nc(Nc2cc(N)cc(C(F)(F)F)c2)n1 [Example 440]
9.5 | CCCCc1cc(N2CC[C@H](NC(C)=O)C2)nc(Nc2ccc(N)c(C(F)(F)F)c2)n1 [Example 441]
41 | CCCCc1cc(N2CC[C@H](NC(C)=O)C2)nc(Nc2ccc(F)c(C(F)(F)F)c2)n1 [Example 442]
9.9 | CCCCc1cc(N2CC[C@H](NC(C)=O)C2)nc(Nc2ccc(F)c(C#N)c2)n1 [Example 443]
12 | CCCCc1cc(N2CC[C@H](NC(C)=O)C2)nc(Nc2ccc(F)c(N)c2)n1 [Example 444]
9.8 | CCCCc1cc(N2CC[C@H](NC(C)=O)C2)nc(Nc2ccc(Cl)c(N)c2)n1 [Example 445]
7.7 | CCCCc1cc(N2CC[C@H](NC(C)=O)C2)nc(Nc2ccc(N)c(C#N)c2)n1 [Example 446]
2.3 | CCCCc1cc(N2CC[C@H](NC)C2)nc(Nc2ccc(N)c(C#N)c2)n1 [Example 447]
2.5 | CCCCc1cc(N2CC[C@H](NC)C2)nc(Nc2ccc(C)c([N+](=O)[O-])c2)n1 [Example 448]
4.4 | CCCCc1cc(N2CC[C@H](NC)C2)nc(Nc2ccc(F)c([N+](=O)[O-])c2)n1 [Example 449]
7.8 | CCCCc1cc(N2CC[C@H](NC)C2)nc(Nc2ccc(Cl)c([N+](=O)[O-])c2)n1 [Example 450]
3 | CCCCc1cc(N2CC[C@H](NC)C2)nc(Nc2cc(N)cc(C#N)c2)n1 [Example 451]
3.3 | CCCCc1cc(N2CC[C@H](NC)C2)nc(Nc2cc(N)cc(C(F)(F)F)c2)n1 [Example 452]
1.6 | CCCCc1cc(N2CC[C@H](NC)C2)nc(Nc2ccc(N)c(C(F)(F)F)c2)n1 [Example 453]
14 | CCCCc1cc(N2CC[C@H](NC)C2)nc(Nc2ccc(F)c(C(F)(F)F)c2)n1 [Example 454]
3.8 | CCCCc1cc(N2CC[C@H](NC)C2)nc(Nc2ccc(F)c(C#N)c2)n1 [Example 455]
2.6 | CCCCc1cc(N2CC[C@H](NC)C2)nc(Nc2ccc(F)c(N)c2)n1 [Example 456]
3 | CCCCc1cc(N2CC[C@H](NC)C2)nc(Nc2ccc(Cl)c(N)c2)n1 [Example 457]
1.7 | CCCCc1cc(N2CC[C@H](NCC)C2)nc(Nc2ccc(N)c(C#N)c2)n1 [Example 458]
3.4 | CCCCc1cc(N2CC[C@H](NCC)C2)nc(Nc2cccc(C#N)c2)n1 [Example 459]
1.9 | CCCCc1cc(N2CC[C@H](NCC)C2)nc(Nc2ccc(C)c(C#N)c2)n1 [Example 460]
1.9 | CCCCc1cc(N2CC[C@H](NCC)C2)nc(Nc2ccc(N)c([N+](=O)[O-])c2)n1 [Example 461]
2.6 | CCCCc1cc(N2CC[C@H](NCC)C2)nc(Nc2ccc(C)c([N+](=O)[O-])c2)n1 [Example 462]
2.1 | CCCCc1cc(N2CC[C@H](NCC)C2)nc(Nc2ccc(F)c([N+](=O)[O-])c2)n1 [Example 463]

EC50 [pM] | Compound
3.9 | CCCCc1cc(N2CC[C@H](NCC)C2)nc(Nc2ccc(Cl)c([N+](=O)[O-])c2)n1 [Example 464]
2.2 | CCCCc1cc(N2CC[C@H](NCC)C2)nc(Nc2cc(N)cc(C#N)c2)n1 [Example 465]
5.8 | CCCCc1cc(N2CC[C@H](NCC)C2)nc(Nc2cc(N)cc(C(F)(F)F)c2)n1 [Example 466]
1.4 | CCCCc1cc(N2CC[C@H](NCC)C2)nc(Nc2ccc(N)c(C(F)(F)F)c2)n1 [Example 467]
6.2 | CCCCc1cc(N2CC[C@H](NCC)C2)nc(Nc2ccc(F)c(C(F)(F)F)c2)n1 [Example 468]
2.1 | CCCCc1cc(N2CC[C@H](NCC)C2)nc(Nc2ccc(F)c(C#N)c2)n1 [Example 469]
2.5 | CCCCc1cc(N2CC[C@H](NCC)C2)nc(Nc2ccc(F)c(N)c2)n1 [Example 470]
3.3 | CCCCc1cc(N2CC[C@H](NCC)C2)nc(Nc2ccc(Cl)c(N)c2)n1 [Example 471]
7.5 | CCCc1cc(N2CC[C@H](NC(=O)CO)C2)nc(Nc2ccc(C)c(C#N)c2)n1 [Example 472, (S)—N-{1-[2-(3-cyano-4-methylphenylamino)-6-propylpyrimidin-4-yl]pyrrolidin-3-yl}-2-hydroxyacetamide]
22 | CCCc1cc(N2CC[C@H](NC(=O)CO)C2)nc(Nc2ccc(F)c(C#N)c2)n1 [Example 473]
6.6 | CCCc1cc(N2CC[C@H](NC(=O)CO)C2)nc(Nc2cc(N)cc(C#N)c2)n1 [Example 474, (S)—N-{1-[2-(3-amino-5-cyanophenylamino)-6-propylpyrimidin-4-yl]pyrrolidin-3-yl}-2-hydroxyacetamide]
11 | CCCc1cc(N2CC[C@H](NC(=O)CO)C2)nc(Nc2cc(N)cc(C(F)(F)F)c2)n1 [Example 475]
14 | CCCc1cc(N2CC[C@H](NC(=O)CO)C2)nc(Nc2ccc(N)c(C(F)(F)F)c2)n1 [Example 476]
9.6 | CCCc1cc(N2CC[C@H](NC(=O)CO)C2)nc(Nc2ccc(F)c(C(F)(F)F)c2)n1 [Example 477]
24 | CCCc1cc(N2CC[C@H](NC(=O)CO)C2)nc(Nc2ccc(F)c(N)c2)n1 [Example 478]
6.4 | CCCc1cc(N2CC[C@H](NC(=O)CO)C2)nc(Nc2ccc(Cl)c(N)c2)n1 [Example 479]
32 | CCCc1cc(N2CC[C@H](NC(=O)CO)C2)nc(Nc2ccc(C)c(Cl)c2)n1 [Example 480]
9.3 | CCCc1cc(N2CC[C@H](NC(=O)CO)C2)nc(Nc2ccc(C)c(C(F)(F)F)c2)n1 [Example 481]
5.8 | CCCc1cc(N2CC[C@H](NC)C2)nc(Nc2ccc(F)c(N)c2)n1 [Example 484]
2.4 | CCCc1cc(N2CC[C@H](NC)C2)nc(Nc2cc(N)cc(C#N)c2)n1 [Example 485]
1.4 | CCCc1cc(N2CC[C@H](NC)C2)nc(Nc2ccc(N)c(C#N)c2)n1 [Example 486]
2.1 | CCCc1cc(N2CC[C@H](NC)C2)nc(Nc2cc(N)cc(C(F)(F)F)c2)n1 [Example 487]
1.5 | CCCc1cc(N2CC[C@H](NCC)C2)nc(Nc2ccc(N)c(C#N)c2)n1 [Example 489]
4.8 | CCCc1cc(N2CC[C@H](NC)C2)nc(Nc2ccc(F)c(C(F)(F)F)c2)n1 [Example 490]
